Experimental data from publication PMC6426897, “Inhibition of NLRP3 inflammasome activation by cell-permeable stapled peptides” (Scientific Reports, 2019).
Where a SMILES comes first, the peptide text is derived from it. Bridges are numbered along the chain shown (N, C = ends). [ ]: non-standard residue; d: D form. R8 = C=CCCCCCC[C@@](C)(N)C(=O)O; S5 = C=CCCC[C@](C)(N)C(=O)O

Experiments:
NLRP3 inflammasome [1] = assay: IL-1β release from THP-1 cells stimulated with LPS and nigericin (ELISA); assay type: cell-based, human; details: THP-1, LPS 0.1 μg/ml 4 h, nigericin 10 μM 1 h, Fig. 8A
Procedure: We next examined whether the ASC peptides could inhibit IL-1β production, which is regulated by the inflammasome. We used THP-1 human monocytic cells to study inflammasome activation as they express high levels of NLRP3, ASC, and pro-casp-1. THP-1 cells were incubated with ms_ASC^PYD #1–6 or ms_NLRP3^PYD peptides at increasing concentrations for 4 hours and were then stimulated with LPS for 4 hours, followed by the NLRP3 activator nigericin for 1 hour. IL-1β levels were measured in the culture supernatant. […] The ms_ASC^PYD peptides reduced IL-1β production from THP-1 cells in response to LPS/nigericin stimulation to variable degrees (Fig. 6A). […] We decided to continue investigating in detail the inhibitory effects of ms_ASC^PYD #5 and #6 peptides, as their estimated binding energies matched well with the experimental data of suppression of ASC-dependent IL-1 release in a dose-dependent manner. Since ms_ASCPYD #6 is the shorter version of ms_ASCPYD #5, this selection also enabled us to verify the effect of varying peptide lengths.
(§1) Human monocytic THP-1 cells (1 × 10^7 cells) were plated in a 10-cm tissue culture dish and treated with PMA (200 nM) overnight to differentiate monocytic cells into macrophages. Cells were then washed and allowed to rest in fresh media for another day. For stimulation, differentiated THP-1 cells were trypsinized and seeded in 96-well plates (2 × 10^6/well). Peripheral blood mononuclear cells were isolated by Ficoll-Hypaque density gradient centrifugation from buffy coats obtained from anonymous donors provided by the National University Hospital Blood Bank, Singapore. Isolation of monocytes was performed using negative selection with the Monocyte Isolation Kit II (Miltenyi Biotech), following the manufacturer’s instructions. Monocytes were plated in tissue culture non-treated 96-well plates (2.5 × 10^5/well) in 250 µl RPMI 1640-Glutamax media supplemented with 3% human AB serum (Gemini Bio Products).
(§2) THP-1 cells and monocytes were incubated with NLRP3^PYD (12.5–25–50 μM), ASC^PYD #5 (12.5-25-50-100 μM) or ASC^PYD #6 (12.5-25-50-100 μM) for the indicated durations. Cells were then washed once with PBS and primed with E. coli LPS (0.1 μg/ml, Invivogen) for 4 h followed by stimulation with nigericin (10 μM) for an additional 1 h or ATP ([…]) for an additional 30 min. The cell culture supernatants were then collected and centrifuged at 500 × g to remove cells and cellular debris.
(§3) IL-1β levels were measured using antibodies from eBioscience (cat. #14-7018-81 and #13-7016-85), following the manufacturer’s instructions. IL-18 levels were measured using antibodies from MBL (D044-3 and D045-6) following the manufacturer’s instructions. The absorbance was measured at 450 nm with the reference wavelength at 570 nm, using an M200 Infinite plate reader (Tecan).

NLRP3 inflammasome [2] = assay: IL-18 release from THP-1 cells stimulated with LPS and nigericin (ELISA); assay type: cell-based, human; details: THP-1, LPS/nigericin; 12.5, 25, 50 and 100 μM; Fig. 8A
Procedure: as §1, with “Products). […]” for “Products).”
as §3

THP-1 cells = assay: Internalization of FAM-labeled peptides by flow cytometry; assay type: in vitro ADME, human; details: THP-1, 37 °C, 4, 8 and 24 hours; FACS; three independent experiments
Procedure: As NLRP3 and ASC are cytosolic proteins, we examined whether the designed peptides could be taken up by monocytic cells to exert their biological effects. To assess peptide internalization, ms_NLRP3^PYD, ms_ASC^PYD #5 and #6 peptides were labeled with the FAM fluorophore at the N-terminus. Internalization of the FAM-labeled peptides was measured as the mean fluorescence intensity (MFI) by fluorescence-assisted cell sorting (FACS). THP-1 cells were incubated with FAM-labeled ms_NLRP3^PYD (12.5, 25 and 50 μM), ms_ASC^PYD #5 and #6 peptides (50 and 100 μM) for 4, 8 and 24 hours. The internalization of the three FAM-labelled peptides was concentration dependent (Fig. 7A,B). […] We also examined the internalization of FAM-labeled peptides in THP-1 cells by confocal microscopy. THP-1 cells were incubated with FAM-ms_NLRP3^PYD (100 μM), FAM-ms_ASC^PYD #5 or FAM-ms_ASC^PYD #6 (100 μM) for 4, 8 and 18 hours. FAM-labeled peptides localized primarily in the cytosol, but not in the nucleus, of THP-1 cells (Fig. 7C).
THP-1 cells (0.5 × 10^6) were incubated with FAM-NLRP3^PYD (12.5-25-50 μM), FAM-ASC^PYD #5 or FAM-ASC^PYD #6 (50-100 μM) peptides in a 6 well-plate. After 4, 8 and 24 h incubation, THP-1 cells were washed twice with PBS and harvested. The analysis was performed on a BD FACSCANTO II (BD Biosciences), and the data were analyzed using FlowJo (Treestar).

NLRP3 inflammasome [3] = assay: Western blot of processed IL-1β p17 and Casp-1 p20 in THP-1 supernatants and of pro-forms in lysates; assay type: cell-based, human; details: THP-1, LPS/nigericin, Fig. 8D
Procedure: as §2
Cell-free supernatants were mixed 1:4 to cold acetone and incubated at −20 °C for at least 1 h. The mixtures were then centrifuged at 15,000 rpm for 15 min at 4 °C. Supernatants were discarded and pellets re-suspended in 1X Laemmli buffer. Total cell lysates were prepared using RIPA buffer containing 150 mM NaCl, 0.5% sodium deoxycholate, 0.1% SDS, 50 mM Tris-HCl pH 8.0 and 1% Triton-X-100. Protein concentrations were determined by BCA assay (Thermo Scientific, cat. 23227) following the manufacturer’s instructions. Lysates were reconstituted in Laemmli buffer (20–50 μg), boiled and separated by SDS–PAGE, and transferred onto PVDF membranes. […]

Structure (SMILES) | Inhibition of IL-1β production (NLRP3 inflammasome [1]; 50 μM peptide) [%] | Inhibition of IL-1β production (NLRP3 inflammasome [1]; 100 μM peptide) [%] | IL-18 production (in words) (NLRP3 inflammasome [2]) | Fluorescent signal (MFI) of internalized peptide over time (THP-1 cells) | Caspase-1 activation (caspase-1 p20 in supernatants) (NLRP3 inflammasome [3])
CC[C@H](C)[C@@H]1NC(=O)[C@H](CCCCN)NC(=O)[C@H](C)NC(=O)[C@H](CC(C)C)NC(=O)[C@H](CCCCN)NC(=O)[C@](C)(NC(=O)[C@H](C)NC(=O)[C@H](CCCNC(=N)N)NC(=O)[C@H](C)NC(=O)[C@@H](NC(C)=O)[C@@H](C)O)CCCCCCC=CCCC[C@@](C)(C(=O)N[C@@H](CCC(=O)O)C(=O)N[C@@H](CO)C(=O)N[C@H](C(N)=O)C(C)C)NC(=O)[C@H](CCCCN)NC1=O [ms_ASC^PYD #5] (Ac-TARA[R8]KLAKIK[S5]ESV-NH2; staple 5-12) | > 60 | > 90 | decreased IL-18 production by LPS/nigericin-stimulated THP-1 cells in a dose-dependent manner | the fluorescent intensity subsequently decreased over-time | reduced caspase-1 activation in a dose-dependent manner
CC[C@H](C)[C@@H]1NC(=O)[C@H](CCCCN)NC(=O)[C@H](C)NC(=O)[C@H](CCCCN)NC(=O)[C@H](CCCCN)NC(=O)[C@](C)(NC(=O)[C@H](C)NC(=O)[C@H](CCCNC(=N)N)NC(C)=O)CCCCCCC=CCCC[C@@](C)(C(=O)N[C@@H](CCC(=O)O)C(=O)N[C@@H](CO)C(=O)N[C@H](C(N)=O)C(C)C)NC(=O)[C@H](CCCCN)NC1=O [ms_ASC^PYD #6] (Ac-RA[R8]KKAKIK[S5]ESV-NH2; staple 3-10) | > 60 | > 90 | decreased IL-18 production by LPS/nigericin-stimulated THP-1 cells in a dose-dependent manner | – | reduced caspase-1 activation in a dose-dependent manner
